Tests used:
[1] = 298.15 K; 101.3 kPa; Liquid; Vibrating tube method
[2] = refractive index (Na D-line) (dimensionless); conditions: 298.15 K; 101.3 kPa; Liquid; Standard Abbe refractometry
[3] = relative permittivity at various frequencies (dimensionless); conditions: 298.15 K; 101.3 kPa; Liquid; Frequency=0.01 MHz; Coaxial cylinder capacitor
[4] = refractive index (Na D-line) (dimensionless); xn = mol fraction of the nth substance listed; conditions: 298.15 K, 101.3 kPa, Liquid, Standard Abbe refractometry
[5] = relative permittivity at various frequencies (dimensionless); xn = mol fraction of the nth substance listed; conditions: 298.15 K, 101.3 kPa, Liquid, Frequency=0.01 MHz, Coaxial cylinder capacitor

CC(C)CCO [3-methylbutan-1-ol]
Conditions | mass density [kg/m3] | refractive index | relative permittivity
[1] | 807.16 | – | –
[2] | – | 1.4048 | –
[3] | – | – | 14.96

CC(C)CCO [3-methylbutan-1-ol] + CC(=O)c1ccccc1
x2 = 0
Conditions | refractive index | relative permittivity
[4] | 1.4048 | –
[5] | – | 14.96

CC(C)CCO [3-methylbutan-1-ol] + CC(C)=O
Conditions | refractive index, [4] | relative permittivity, [5]
x2 = 0 | 1.4048 | 14.96
x2 = 0.1 | 1.4016 | 14.72
x2 = 0.2 | 1.3981 | 14.62
x2 = 0.3 | 1.3936 | 14.71
x2 = 0.4 | 1.3893 | 14.96
x2 = 0.5 | 1.3854 | 15.44
x2 = 0.6 | 1.3799 | 16.08
x2 = 0.7 | 1.3751 | 16.95
x2 = 0.8 | 1.3701 | 17.99
x2 = 0.9 | 1.3634 | 19.21

CC(C)CCO [3-methylbutan-1-ol] + CCC(C)=O
Conditions | refractive index, [4] | relative permittivity, [5]
x2 = 0 | 1.4048 | 14.96
x2 = 0.099 | 1.4024 | 14.59
x2 = 0.2 | 1.4001 | 14.38
x2 = 0.3 | 1.3972 | 14.33
x2 = 0.4 | 1.3948 | 14.44
x2 = 0.499 | 1.392 | 14.69
x2 = 0.599 | 1.3891 | 15.12
x2 = 0.7 | 1.3863 | 15.7
x2 = 0.8 | 1.3829 | 16.43
x2 = 0.9 | 1.38 | 17.33

CC(C)CCO [3-methylbutan-1-ol] + C[S+](C)[O-]
Conditions | refractive index, [4] | relative permittivity, [5]
x2 = 0 | 1.4048 | 14.96
x2 = 0.1 | 1.4071 | 15.92
x2 = 0.2 | 1.4118 | 17.56
x2 = 0.3 | 1.4168 | 19.79
x2 = 0.4 | 1.4227 | 22.45
x2 = 0.5 | 1.4305 | 25.51
x2 = 0.6 | 1.4385 | 28.95
x2 = 0.7 | 1.4459 | 32.76
x2 = 0.8 | 1.4549 | 37.01
x2 = 0.9 | 1.4651 | 41.68

CC(C)=O [acetone]
Conditions | mass density [kg/m3] | refractive index | relative permittivity
[1] | 784.42 | – | –
[2] | – | 1.3564 | –
[3] | – | – | 20.69

CC(C)=O [acetone] + CC(C)CCO
x1 = 1
Conditions | refractive index | relative permittivity
[4] | 1.3564 | –
[5] | – | 20.69

CC(C)=O [acetone] + CCCCCO
x1 = 1
Conditions | refractive index | relative permittivity
[4] | 1.3564 | –
[5] | – | 20.69

CC(=O)c1ccccc1 [acetophenone]
Conditions | mass density [kg/m3] | refractive index | relative permittivity
[1] | 1022.77 | – | –
[2] | – | 1.5318 | –
[3] | – | – | 17.51

CC(=O)c1ccccc1 [acetophenone] + CC(C)CCO
Conditions | refractive index, [4] | relative permittivity, [5]
x1 = 0.101 | 1.418 | 14.65
x1 = 0.199 | 1.4303 | 14.47
x1 = 0.301 | 1.4451 | 14.39
x1 = 0.4 | 1.4573 | 14.45
x1 = 0.5 | 1.4709 | 14.66
x1 = 0.6 | 1.4817 | 14.97
x1 = 0.699 | 1.4935 | 15.44
x1 = 0.8 | 1.5063 | 16.03
x1 = 0.9 | 1.5187 | 16.71
x1 = 1 | 1.5318 | 17.51

CC(=O)c1ccccc1 [acetophenone] + CCCCCO
Conditions | refractive index, [4] | relative permittivity, [5]
x1 = 0.1 | 1.4212 | 14.86
x1 = 0.2 | 1.4346 | 14.71
x1 = 0.3 | 1.4468 | 14.66
x1 = 0.4 | 1.4598 | 14.75
x1 = 0.501 | 1.4726 | 14.94
x1 = 0.6 | 1.4859 | 15.25
x1 = 0.7 | 1.4968 | 15.65
x1 = 0.8 | 1.5092 | 16.19
x1 = 0.9 | 1.5213 | 16.83
x1 = 1 | 1.5318 | 17.51

CCC(C)=O [butanone]
Conditions | mass density [kg/m3] | refractive index | relative permittivity
[1] | 799.75 | – | –
[2] | – | 1.376 | –
[3] | – | – | 18.38

CCC(C)=O [butanone] + CC(C)CCO
x1 = 1
Conditions | refractive index | relative permittivity
[4] | 1.376 | –
[5] | – | 18.38

CCC(C)=O [butanone] + CCCCCO
Conditions | refractive index, [4] | relative permittivity, [5]
x1 = 0.1 | 1.4053 | 14.81
x1 = 0.2 | 1.4023 | 14.68
x1 = 0.3 | 1.3988 | 14.63
x1 = 0.4 | 1.3959 | 14.73
x1 = 0.5 | 1.393 | 14.96
x1 = 0.599 | 1.3898 | 15.35
x1 = 0.7 | 1.3859 | 15.9
x1 = 0.8 | 1.3826 | 16.56
x1 = 0.9 | 1.3796 | 17.44
x1 = 1 | 1.376 | 18.38

C1CCCCC1 [cyclohexane]
Conditions | mass density [kg/m3] | refractive index | relative permittivity
[1] | 773.58 | – | –
[2] | – | 1.4234 | –
[3] | – | – | 2.02

C[S+](C)[O-] [dimethyl sulfoxide]
Conditions | mass density [kg/m3] | refractive index | relative permittivity
[1] | 1096.07 | – | –
[2] | – | 1.4767 | –
[3] | – | – | 46.71

C[S+](C)[O-] [dimethyl sulfoxide] + CC(C)CCO
x1 = 1
Conditions | refractive index | relative permittivity
[4] | 1.4768 | –
[5] | – | 46.71

C[S+](C)[O-] [dimethyl sulfoxide] + CCCCCO
x1 = 1
Conditions | refractive index | relative permittivity
[4] | 1.4767 | –
[5] | – | 46.71

CCCCCO [pentan-1-ol]
Conditions | mass density [kg/m3] | refractive index | relative permittivity
[1] | 811.1 | – | –
[2] | – | 1.4082 | –
[3] | – | – | 15.12

CCCCCO [pentan-1-ol] + CC(=O)c1ccccc1
x2 = 0
Conditions | refractive index | relative permittivity
[4] | 1.4082 | –
[5] | – | 15.12

CCCCCO [pentan-1-ol] + CC(C)=O
Conditions | refractive index, [4] | relative permittivity, [5]
x2 = 0 | 1.4082 | 15.12
x2 = 0.1 | 1.4049 | 14.94
x2 = 0.2 | 1.4015 | 14.91
x2 = 0.301 | 1.397 | 15.01
x2 = 0.399 | 1.3926 | 15.28
x2 = 0.5 | 1.3882 | 15.73
x2 = 0.601 | 1.3828 | 16.35
x2 = 0.701 | 1.3771 | 17.21
x2 = 0.8 | 1.3706 | 18.21
x2 = 0.9 | 1.3639 | 19.36

CCCCCO [pentan-1-ol] + CCC(C)=O
x2 = 0
Conditions | refractive index | relative permittivity
[4] | 1.4082 | –
[5] | – | 15.12

CCCCCO [pentan-1-ol] + C[S+](C)[O-]
Conditions | refractive index, [4] | relative permittivity, [5]
x2 = 0 | 1.4082 | 15.12
x2 = 0.099 | 1.4109 | 16.27
x2 = 0.201 | 1.4164 | 18.04
x2 = 0.3 | 1.4217 | 20.24
x2 = 0.4 | 1.427 | 22.93
x2 = 0.5 | 1.4339 | 25.94
x2 = 0.6 | 1.44 | 29.38
x2 = 0.7 | 1.4488 | 33.14
x2 = 0.8 | 1.4573 | 37.33
x2 = 0.9 | 1.4675 | 41.95
